# Legend:
# [1] = system: B16 melanoma cells; assay: Cytotoxicity test (MTT assay); type: cell-based; settings: for Cell survival rate: 72 hours, no sample = 100
# Description: B16 melanoma cells were seeded on 10% (v/v) FBS-containing MEM medium so as to be 1.25×10^5 cells/well in a 24-well culture plate and were cultivated for 24 hours in a usual manner.
# (§1) After the pre-cultivation, the medium was replaced with a test medium and cultivation was carried out for 72 hours. As the test medium, there was employed a medium obtained by adding 0.25 mmol/L of theophylline, 0.5% (v/v) of dimethyl sulfoxide to the medium for the pre-cultivation, and each of various evaluation samples so as to be a concentration described in Table.
# After the cultivation was finished, the cells were washed with PBS and then a 0.5 mg/mL MTT solution was added in an amount of 500 μL/well and the temperature was kept for 2 hours in an incubator. Thereafter, 1.5 mL of dimethyl sulfoxide was added thereto and then absorbance at a wavelength of 570 nm was measured and taken as an index of the number of living cells.
# A cell revival rate (%) in the case where the evaluation sample was added was determined, the number of living cells in the case where no evaluation sample was added being regarded as 100.
# [2] = system: B16 melanoma cells; assay: Melanin production inhibition test; type: cell-based; settings: for Melanin Production: no sample = 100; for IC50: Mus musculus, B16, read out from the melanin production inhibition curves (FIG. 1), read-out: IC50 values at which 50% of the melanin production was inhibited
# Description: B16 melanoma cells were seeded on 10% (v/v) FBS-containing MEM medium (minimum basal medium containing fetal bovine serum) so as to be 2.5×10^5 cells/well in a 12-well culture plate and were cultivated for 24 hours in a usual manner.
# as §1
# The Salacia crude extract was prepared by the following method. After 0.5 kg of root and trunk parts of Salacia reticulate, Salacia oblonga, and Salacia chinensis were pulverized, 10 L of water was added thereto and extraction was performed under conditions of 100° C. and 1 hour. After the obtained extract solution was filtrated through a 100-mesh filter, spray drying was performed and a product obtained as 50 g of an extract powder was used.
# As ellagic acid, ellagic acid dihydrate manufactured by Wako Pure Chemical Industries, Ltd. was used.
# As arbutin, β-arbutin manufactured by Sigma-Aldrich was used.
# After the cultivation was finished, the cells were washed with PBS (phosphate buffer) and then a 1 mol/L aqueous sodium hydroxide solution containing 10% (v/v) dimethyl sulfoxide was added thereto. After the whole was subjected to an ultrasonic treatment at 50° C. for 30 minutes, absorbance of the solution at a wavelength of 400 nm was measured and was taken as a melanin amount in a well. Moreover, at the same time, measurement of the number of living cells by MTT assay was carried out in another culture plate (test conditions are in accordance to Example 2). Finally, the melanin amount in the well was normalized by the measurement value by the MTT assay and the resulting amount was taken as a melanin amount per unit cell.
# A melanin production inhibition rate (%) in the case where the evaluation sample was added was determined, the melanin amount in the case where no evaluation sample was added being regarded as 100.
# [3] = high concentration region, data are not shown
structure (smiles),measurement,setting,value
"OC[C@H]1O[C@@H](Oc2ccc(O)cc2)[C@H](O)[C@@H](O)[C@@H]1O [Arbutin, β-arbutin]",cytotoxicity (in words),[1]; [3],cytotoxicity was observed
same,Melanin Production,"[2]; 16.338 μg/mL, 72 hours",69.5%
same,Melanin Production,"[2]; 54.46 μg/mL, 72 hours",49.9%
same,Melanin Production,"[2]; 163.38 μg/mL, 72 hours",28.4%
same,Melanin Production,"[2]; 544.6 μg/mL, 72 hours",20.7%
same,IC50,[2],54 µg/mL
"O=c1oc2c(O)c(O)cc3c(=O)oc4c(O)c(O)cc1c4c23 [Ellagic acid, ellagic acid dihydrate]",Cell survival rate,[1]; 0.67646 μg/mL,117.4%
same,Cell survival rate,[1]; 2.02938 μg/mL,107.3%
same,Cell survival rate,[1]; 6.7646 μg/mL,48.1%
same,Cell survival rate,[1]; 20.2938 μg/mL,25.8%
same,cytotoxicity (in words),[1]; high concentration region (up to 20.3 μg/mL),exhibited cytotoxicity
same,Melanin Production,"[2]; 0.67646 μg/mL, 72 hours",79%
same,Melanin Production,"[2]; 2.02938 μg/mL, 72 hours",33%
same,IC50,[2],1.5 µg/mL
O=c1cc(CO)occ1O [Kojic acid],cytotoxicity (in words),[1]; [3],cytotoxicity was observed
same,Melanin Production,"[2]; 8.5266 μg/mL, 72 hours",83.6%
same,Melanin Production,"[2]; 28.422 μg/mL, 72 hours",77.2%
same,Melanin Production,"[2]; 85.266 μg/mL, 72 hours",72.8%
same,Melanin Production,"[2]; 284.22 μg/mL, 72 hours",43.4%
same,IC50,[2],240 µg/mL
COc1ccc(C(=O)[O-])c(O)c1.[K+] [Potassium 4-methoxysalicylate],cytotoxicity (in words),[1]; [3],cytotoxicity was observed
same,Melanin Production,"[2]; 123.69 μg/mL, 72 hours",46.0%
same,Melanin Production,"[2]; 412.3 μg/mL, 72 hours",20.1%
same,IC50,[2],80 µg/mL
"O=S(=O)([O-])O[C@@H](CO)[C@H](O)C[S@+]1C[C@@H](O)[C@H](O)[C@H]1CO [Salacinol, salacinol]",Cell survival rate,[1]; 1.998 μg/mL,89.6%
same,Cell survival rate,[1]; 6.66 μg/mL,85.0%
same,Cell survival rate,[1]; 19.98 μg/mL,87.9%
same,Cell survival rate,[1]; 66.6 μg/mL,78.8%
same,cytotoxicity (in words),[1]; concentration region up to 66.6 μg/mL,almost no cytotoxicity
same,Melanin Production,"[2]; 1.998 μg/mL, 72 hours, melanin amount per unit cell",71%
same,Melanin Production,"[2]; 6.66 μg/mL, 72 hours",50%
same,Melanin Production,"[2]; 19.98 μg/mL, 72 hours",34%
same,melanin production inhibitory effect (in words),"[2]; B16 melanoma cells, 72 hours",concentration-dependent and remarkable melanin production inhibitory effect
same,IC50,[2],6.3 µg/mL
